Test results published in ChEMBL document CHEMBL4316588, “Design, Synthesis, and Biological Evaluation of Novel DNA Gyrase-Inhibiting Spiropyrimidinetriones as Potent Antibiotics for Treatment of Infections Caused by Multidrug-Resistant Gram-Positive Bacteria” (J Med Chem, 2019).
In brackets after ≈: the same amount, converted by molar mass. Activity calls are given as the source filed them. The calls are words filed in the database; no cut-off is given here.

What was measured:
Type in all cases: functional
[1] = system: Staphylococcus epidermidis; assay: Antibacterial activity against methicillin-sensitive Staphylococcus epidermidis after 18 to 20 hrs by CLSI-protocol based broth microdilution method
[2] = system: Staphylococcus aureus; assay: Antibacterial activity against methicillin-sensitive Staphylococcus aureus after 18 to 20 hrs by CLSI-protocol based broth microdilution method
[3] = system: Staphylococcus aureus; assay: Antibacterial activity against methicillin-resistant Staphylococcus aureus after 18 to 20 hrs by CLSI-protocol based broth microdilution method
[4] = system: Staphylococcus epidermidis; assay: Antibacterial activity against methicillin-resistant Staphylococcus epidermidis after 18 to 20 hrs by CLSI-protocol based broth microdilution method
[5] = system: Streptococcus pneumoniae; assay: Antibacterial activity against penicillin-resistant Streptococcus pneumoniae after 18 to 20 hrs by CLSI-protocol based broth microdilution method
[6] = system: Streptococcus pyogenes; assay: Antibacterial activity against Streptococcus pyogenes after 18 to 20 hrs by CLSI-protocol based broth microdilution method
[7] = Staphylococcus aureus, read-out: MIC
[8] = Streptococcus pyogenes, read-out: MIC

Structure (SMILES) | MIC [1] | MIC [2, 7] | MIC [3] | MIC [4] | MIC [5] | MIC [6, 8] | MIC [2] | MIC [6]
C[C@@H]1CN2c3c(cc4c(N5CC6(CC6)OC5=O)noc4c3C#N)CC3(C(=O)NC(=O)NC3=O)[C@H]2[C@H](C)O1 | 0.25 to 2 µg/mL (≈ 0.494 to 3.95 µM) | 1 to 4 µg/mL (≈ 1.97 to 7.9 µM) | 0.03 to 8 µg/mL (≈ 0.0592 to 15.8 µM) | 0.5 to 2 µg/mL (≈ 0.987 to 3.95 µM) | 1 to 2 µg/mL (≈ 1.97 to 3.95 µM) | 4 µg/mL (≈ 7.9 µM) |  | 
C[C@@H]1CN2c3c(cc4c(N5C[C@H](CO)SC5=O)noc4c3F)CC3(C(=O)NC(=O)NC3=O)[C@H]2[C@H](C)O1 | 0.06 to 0.25 µg/mL (≈ 0.115 to 0.481 µM) | 1 µg/mL (≈ 1.92 µM) | 0.5 to 4 µg/mL (≈ 0.962 to 7.7 µM) | 0.03 to 0.125 µg/mL (≈ 0.0577 to 0.241 µM) | 0.125 to 0.25 µg/mL (≈ 0.241 to 0.481 µM) | 0.125 to 0.5 µg/mL (≈ 0.241 to 0.962 µM) |  | 
C[C@@H]1CN2c3c(cc4c(N5CC6(CCCC6)OC5=O)noc4c3F)CC3(C(=O)NC(=O)NC3=O)[C@H]2[C@H](C)O1 | 0.06 to 0.25 µg/mL (≈ 0.114 to 0.474 µM) | 0.125 to 0.25 µg/mL (≈ 0.237 to 0.474 µM) | 0.06 to 1 µg/mL (≈ 0.114 to 1.9 µM) | 0.03 to 0.25 µg/mL (≈ 0.0569 to 0.474 µM) | 0.25 to 1 µg/mL (≈ 0.474 to 1.9 µM) | 0.25 to 0.5 µg/mL (≈ 0.474 to 0.948 µM) |  | 
C[C@@H]1CN2c3c(cc4c(N5C[C@H](C)SC5=O)noc4c3C#N)CC3(C(=O)NC(=O)NC3=O)[C@H]2[C@H](C)O1 | 0.06 to 0.125 µg/mL (≈ 0.118 to 0.245 µM) | 0.06 to 1 µg/mL (≈ 0.118 to 1.96 µM) |  | 0.06 to 0.5 µg/mL (≈ 0.118 to 0.979 µM) | 0.125 to 0.25 µg/mL (≈ 0.245 to 0.49 µM) | 0.125 to 0.5 µg/mL (≈ 0.245 to 0.979 µM) |  | 
CC(=O)NC[C@H]1CN(c2noc3c(F)c4c(cc23)CC2(C(=O)NC(=O)NC2=O)[C@H]2[C@H](C)O[C@H](C)CN42)C(=O)S1 | 2 to 8 µg/mL (≈ 3.57 to 14.3 µM) | 16 µg/mL (≈ 28.5 µM) | 16 to 64 µg/mL (≈ 28.5 to 114 µM) | 0.5 to 2 µg/mL (≈ 0.892 to 3.57 µM) | 2 µg/mL (≈ 3.57 µM) | 16 to 32 µg/mL (≈ 28.5 to 57.1 µM) |  | 
C[C@@H]1CN2c3c(cc4c(N5C(=O)SC[C@H]5C)noc4c3F)CC3(C(=O)NC(=O)NC3=O)[C@H]2[C@H](C)O1 | 0.03 to 0.125 µg/mL (≈ 0.0596 to 0.248 µM) | 0.25 to 0.5 µg/mL (≈ 0.497 to 0.993 µM) | 0.03 to 0.5 µg/mL (≈ 0.0596 to 0.993 µM) | 0.03 to 0.125 µg/mL (≈ 0.0596 to 0.248 µM) | 0.25 to 1 µg/mL (≈ 0.497 to 1.99 µM) | 0.125 to 0.25 µg/mL (≈ 0.248 to 0.497 µM) |  | 
C[C@@H]1CN2c3c(cc4c(N5CCCOC5=O)noc4c3F)CC3(C(=O)NC(=O)NC3=O)[C@H]2[C@H](C)O1 (racemic) | 4 µg/mL (≈ 8.21 µM) | 4 to 8 µg/mL (≈ 8.21 to 16.4 µM) | 1 to 64 µg/mL (≈ 2.05 to 131 µM) | 1 to 8 µg/mL (≈ 2.05 to 16.4 µM) | 4 to 8 µg/mL (≈ 8.21 to 16.4 µM) | 4 µg/mL (≈ 8.21 µM) |  | 
CC[C@@H]1CN(c2noc3c(F)c4c(cc23)CC2(C(=O)NC(=O)NC2=O)[C@H]2[C@H](C)O[C@H](C)CN42)C(=O)S1 | < 0.03 µg/mL |  |  | < 0.03 µg/mL |  | < 0.03 µg/mL |  | 
C[C@@H]1CN2c3c(cc4c(N5CCOCC5=O)ncnc4c3F)CC3(C(=O)NC(=O)NC3=O)[C@H]2[C@H](C)O1 (racemic) | inactive |  | inactive | inactive | inactive |  | inactive | inactive
C[C@@H]1CN2c3c(cc4c(N5C[C@H](COC(F)(F)F)SC5=O)noc4c3F)CC3(C(=O)NC(=O)NC3=O)[C@H]2[C@H](C)O1 |  | 0.06 to 1 µg/mL (≈ 0.102 to 1.7 µM) |  |  | 0.125 to 0.5 µg/mL (≈ 0.213 to 0.851 µM) | 0.125 to 0.25 µg/mL (≈ 0.213 to 0.426 µM) |  | 
C[C@@H]1CN2c3c(cc4c(N5C(=O)OC[C@@H]5C)noc4c3F)CC3(C(=O)N(C)C(=O)N(C)C3=O)[C@H]2[C@H](C)O1 | inactive |  | inactive | inactive | inactive |  | inactive | inactive
C[C@@H]1CN2c3c(cc4c(N5CC6(CC6)OC5=O)noc4c3F)CC3(C(=O)NC(=O)NC3=O)[C@H]2[C@H](C)O1 (racemic) | ≤ 0.03 µg/mL |  | 0.03 to 0.125 µg/mL (≈ 0.0601 to 0.25 µM) | ≤ 0.03 µg/mL | ≤ 0.03 µg/mL | ≤ 0.03 µg/mL | <0.03 µg/mL | 
C[C@@H]1CN2c3c(cc4c(N5C(=O)S[C@@H]6CCCC[C@@H]65)noc4c3F)CC3(C(=O)NC(=O)NC3=O)[C@H]2[C@H](C)O1 | 0.25 to 0.5 µg/mL (≈ 0.46 to 0.92 µM) | 0.5 to 1 µg/mL (≈ 0.92 to 1.84 µM) | 0.5 to 2 µg/mL (≈ 0.92 to 3.68 µM) | 0.125 to 0.5 µg/mL (≈ 0.23 to 0.92 µM) | < 0.03 µg/mL |  |  | 
C[C@@H]1CN2c3c(cc4c(N5C(=O)OC[C@@H]5C)noc4c3F)CC3(C(=O)NC(=S)NC3=O)[C@H]2[C@H](C)O1 | inactive |  | inactive | inactive | inactive |  | inactive | inactive
C[C@@H]1CN2c3c(cc4c(-n5cncn5)ncnc4c3F)CC3(C(=O)NC(=O)NC3=O)[C@H]2[C@H](C)O1 (racemic) | inactive |  | inactive | inactive | inactive |  | inactive | inactive
C[C@@H]1CN2c3c(cc4c(N5C(=O)S[C@@H]6CCC[C@@H]65)noc4c3F)CC3(C(=O)NC(=O)NC3=O)[C@H]2[C@H](C)O1 | < 0.03 µg/mL |  |  |  | < 0.03 µg/mL | < 0.03 µg/mL |  | 
C[C@@H]1CN(c2noc3c(C#N)c4c(cc23)CC2(C(=O)NC(=O)NC2=O)[C@H]2[C@H](C)O[C@H](C)CN42)C(=O)O1 | 1 to 2 µg/mL (≈ 2.02 to 4.04 µM) | 2 to 8 µg/mL (≈ 4.04 to 16.2 µM) | 0.25 to 8 µg/mL (≈ 0.506 to 16.2 µM) | 2 µg/mL (≈ 4.04 µM) | 4 to 8 µg/mL (≈ 8.09 to 16.2 µM) | 4 to 8 µg/mL (≈ 8.09 to 16.2 µM) |  | 
C[C@@H]1CN2c3c(cc4c(N5CC6(COC6)OC5=O)noc4c3F)CC3(C(=O)NC(=O)NC3=O)[C@H]2[C@H](C)O1 | 0.03 to 0.125 µg/mL (≈ 0.0582 to 0.243 µM) | 0.125 to 0.25 µg/mL (≈ 0.243 to 0.485 µM) | 0.03 to 1 µg/mL (≈ 0.0582 to 1.94 µM) | 0.03 to 0.25 µg/mL (≈ 0.0582 to 0.485 µM) | 0.125 to 0.5 µg/mL (≈ 0.243 to 0.97 µM) | 0.125 to 0.25 µg/mL (≈ 0.243 to 0.485 µM) |  | 
Cc1ncnc2c(F)c3c(cc12)CC1(C(=O)NC(=O)NC1=O)[C@H]1[C@H](C)O[C@H](C)CN31 (racemic) | inactive |  | inactive | inactive | inactive |  | inactive | inactive
C[C@H]1COc2c(N3CCN(C)CC3)c(F)cc3c(=O)c(C(=O)O)cn1c23.C[C@H]1COc2c(N3CCN(C)CC3)c(F)cc3c(=O)c(C(=O)O)cn1c23.O [LEVOFLOXACIN] | 0.5 to 4 µg/mL | 4 to 64 µg/mL | 16 to 64 µg/mL | 4 to 64 µg/mL |  | 0.5 to 1 µg/mL |  | 
C[C@@H]1CN2c3c(cc4c(N5CCOC5=O)ncnc4c3F)CC3(C(=O)NC(=O)NC3=O)[C@H]2[C@H](C)O1 (relative stereo) | inactive |  | inactive | inactive | inactive |  | inactive | inactive
C[C@@H]1CN2c3c(cc4c(N5C(=O)SC[C@@H]5Cc5ccccc5)noc4c3F)CC3(C(=O)NC(=O)NC3=O)[C@H]2[C@H](C)O1 | 1 to 4 µg/mL (≈ 1.73 to 6.9 µM) | 2 to 8 µg/mL (≈ 3.45 to 13.8 µM) | 8 to 16 µg/mL (≈ 13.8 to 27.6 µM) | 1 to 4 µg/mL (≈ 1.73 to 6.9 µM) | 4 to 8 µg/mL (≈ 6.9 to 13.8 µM) | 4 to 8 µg/mL (≈ 6.9 to 13.8 µM) |  | 
C[C@@H]1CN2c3c(cc4c(N5CCSCC5)ncnc4c3F)CC3(C(=O)NC(=O)NC3=O)[C@H]2[C@H](C)O1 (racemic) | inactive |  | inactive | inactive | inactive |  | inactive | inactive
C[C@@H]1CN2c3c(cc4c(N5C[C@H](c6ccccc6)SC5=O)noc4c3F)CC3(C(=O)NC(=O)NC3=O)[C@H]2[C@H](C)O1 | 0.5 to 2 µg/mL (≈ 0.884 to 3.54 µM) | 0.5 to 1 µg/mL (≈ 0.884 to 1.77 µM) | 0.125 to 2 µg/mL (≈ 0.221 to 3.54 µM) | 0.125 to 0.5 µg/mL (≈ 0.221 to 0.884 µM) | 1 to 2 µg/mL (≈ 1.77 to 3.54 µM) | 4 µg/mL (≈ 7.07 µM) |  | 
C[C@@H]1CN2c3c(cc4c(N5C(=O)OCC56CC6)noc4c3F)CC3(C(=O)NC(=O)NC3=O)[C@H]2[C@H](C)O1 (racemic) | 1 to 2 µg/mL (≈ 2 to 4 µM) | 1 µg/mL (≈ 2 µM) | 1 to 4 µg/mL (≈ 2 to 8.01 µM) | 0.5 to 2 µg/mL (≈ 1 to 4 µM) | 2 µg/mL (≈ 4 µM) | 1 to 2 µg/mL (≈ 2 to 4 µM) |  | 
C[C@@H]1CN2c3c(cc4c(N5C[C@H](CF)SC5=O)noc4c3F)CC3(C(=O)NC(=O)NC3=O)[C@H]2[C@H](C)O1 | < 0.03 µg/mL | 0.06 to 0.125 µg/mL (≈ 0.115 to 0.24 µM) |  |  | 0.06 to 0.25 µg/mL (≈ 0.115 to 0.479 µM) |  |  | 
